According to patent US6949566B2, “Thiazole and oxazole derivatives” (Shionogi & Co. Ltd., priority 2000, dated 2005):

What was measured:
Format in all cases: biochemical
[1] = target: T1, MMP-8 (Homo sapiens, UniProt P22894); assay: Assay for inhibitory activities on MMPs (fluorogenic peptide substrate), MMP-8; settings: catalytic domain 99Phe-262Gly; substrate MOCAc-Pro-Leu-Gly-Leu-A2Pr(DNP)-Ala-Arg-NH2
T1 construct: catalytic domain (^99Phe˜^262Gly) was amplified with PCR; His-tag; enterokinase digestion-site; made in house; host or cells: Escherichia coli
T1 sequence (P22894 99-262): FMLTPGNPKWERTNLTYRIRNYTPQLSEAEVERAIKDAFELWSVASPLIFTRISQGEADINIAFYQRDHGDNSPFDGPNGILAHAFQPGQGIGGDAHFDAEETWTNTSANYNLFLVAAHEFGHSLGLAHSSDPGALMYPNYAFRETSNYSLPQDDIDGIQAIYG
Description: In regard to MMP-8, catalytic domain (^99Phe˜^262Gly) was amplified with PCR using commercial available Human Bone Marrow cDNA. This was cloned in Escherichia. coli expression vector pTrc99AHE inserted with His-tag sequence and enterokinase digestion-site, induced and expressed by IPTG (Isopropyl-β-D-thiogalactopyranoside) and expressed in a insoluble fraction (Thau F. Ho, M. Walid Qoronfleh, Robert C. Wahl, Trica A. Pulvino, Karen J. Vavra, Joe Falvo, Tracey M. Banks, Patricia G. Brake and Richard B. Ciccarelli: Gene expression, purification and characterization of recombinant human neutrophil collagenase. Gene 146, (1994) 297-301, Prepared by the a improved method of this material). Isolation of MMP-8 from an insoluble fraction was carried out by dissolving in modifier (6M urea) by a usual method and purification with metal chelate chromatography. And then removing modifier (6M urea) with dialysis and refolding of the enzyme spontaneously gave activated MMP-8.
(§1) The enzymatic activity on MMPs was analyzed by the method described in “C. Graham Knight, Frances Willenbrock and Gillian Murphy: A novel coumarin-labelled peptide for sensitive continuous assays of the matrix metalloproteinases: FEBS LETT., 296, (1992), 263-266”. The substrate MOCAc-Pro-Leu-Gly-Leu-A2Pr(DNP)-Ala-Arg-NH2 was purchased from Peptide Institute, Inc., Osaka, Japan. The measurement of the inhibitory activities (IC50) was carried out by the following four methods;
(§2) (A) Reaction with substrate, enzyme (MMPs) and inhibitor
(§3) (B) Reaction with substrate and inhibitor, without enzyme
(§4) (C) Reaction with substrate and enzyme (MMPs), without inhibitor
(§5) (D) Reaction with substrate only
(§6) IC50 values were calculated by using the following formula and each fluorescence values of above four methods (A to D). % inhibition={1−(A−B)/(C−D)}×100 IC50 means the concentration required to inhibit 50% of the enzyme activity.

[2] = target: T2, MMP-9 (Homo sapiens, UniProt P14780); assay: Assay for inhibitory activities on MMPs (fluorogenic peptide substrate), MMP-9; settings: MMP-9 from HT1080 cells, activated by TPCK-Trypsin; substrate MOCAc-Pro-Leu-Gly-Leu-A2Pr(DNP)-Ala-Arg-NH2
T2 construct: endogenous in cells; host or cells: HT1080 human fibrosarcoma cells, TPA-stimulated; enzyme purified from conditioned medium
T2 sequence (P14780 107-707 limits assumed): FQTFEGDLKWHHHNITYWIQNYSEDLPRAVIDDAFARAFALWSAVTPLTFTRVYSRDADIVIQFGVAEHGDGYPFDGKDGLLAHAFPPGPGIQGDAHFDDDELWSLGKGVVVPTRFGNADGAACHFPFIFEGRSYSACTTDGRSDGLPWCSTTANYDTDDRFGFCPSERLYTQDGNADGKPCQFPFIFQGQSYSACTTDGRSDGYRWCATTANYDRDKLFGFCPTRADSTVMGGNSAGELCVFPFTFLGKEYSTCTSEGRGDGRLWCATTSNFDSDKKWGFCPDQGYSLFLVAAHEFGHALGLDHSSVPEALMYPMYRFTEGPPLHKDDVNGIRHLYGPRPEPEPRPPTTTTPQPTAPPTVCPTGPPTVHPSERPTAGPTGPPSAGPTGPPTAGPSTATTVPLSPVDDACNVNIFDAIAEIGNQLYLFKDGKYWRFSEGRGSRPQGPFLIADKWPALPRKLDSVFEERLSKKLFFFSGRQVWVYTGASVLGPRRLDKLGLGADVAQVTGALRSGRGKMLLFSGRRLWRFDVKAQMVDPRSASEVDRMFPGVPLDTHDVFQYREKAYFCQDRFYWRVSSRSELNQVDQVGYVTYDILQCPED
Description: MMP-9 was isolated and purified by procedures described in as follows: Yasunori Okada, Yukio Gonoji, Katsumi Naka, Katsuro Tomita, Isao Nakanishi, Kazushi Iwata, Kyoko Yamashita, and Taro Hayakawa: Matrix metalloproteinase 9 (92-kDa gelatinase/type IV collagenase) from HT1080 human fibrosarcoma cells. Purification and activation of the precursor and enzymic properties J. Biol. Chem., 1992, 267 21712-21719, in combination with others: 1)Yasunori Okada, Tatsuhisa Morodomi, Jan J, Enghild, ko Suzuki, Atsushi Yasui, Isao Nakanishi, Guy Salvesen and Hideaki Nagase: Matrix metalloproteinase 2 from human rheumatoid synovial fibroblasts. Purification and activation of the precursor and enzymic properties. Eur. J. Biochem. 1990, 194 721-730; 2)Robin V Ward, Rosalind M Hembry, John J Reynolds and Gillian Murphy: The purification of tissue inhibitor of metalloproteinase-2 from its 72 kDa progelatinase complex. Biochem. J. 1991 278 179-187. In detail, human fibrosarcoma ATCC HT1080 cell line was cultured to confluent in Dulbecco's Modified Medium (DMEM) containing 10% fetal-calf serum at 37° C. for 48 hours. Subsequently, the medium of confluent culture was changed to serum-free DMEM medium. To obtain MMP-9, Phorbol-12-myristate-13-acetate (TPA) must be added to this serum-free DMEM medium at a concentration of 50 ng/ml. The TPA treated medium was centrifuged at 3000 rpm for 15 min and the supernatant was concentrated to 450 ml by a Toyo-Roshi UP-20 apparatus with an ultrafiltration membrane. Then, proMMP-9 in this concentrated solution was purified by using columns of Gelatin-Sepharose and Concanavalin A-Sepharose. The pool containing proMMP-9 was dialyzed, concentrated (Toyo-Roshi UP-20) and applied to columns of Sephacryl S-200 and Green A matrix for the separation from TIMPs. The obtained proMMP-9 fraction was activated by TPCK-Trypsin (Final conc. 3 μg/501 μl React Mix.).
as §1, §2, §3, §4, §5, §6

[3] = target: T3, MMP-12 (Homo sapiens, UniProt P39900); assay: Assay for inhibitory activities on MMPs (fluorogenic peptide substrate), MMP-12; settings: catalytic domain 100Phe-263Gly; substrate MOCAc-Pro-Leu-Gly-Leu-A2Pr(DNP)-Ala-Arg-NH2
T3 construct: catalytic domain(^100Phe˜^263Gly) was amplified with RT-PCR; His-tag; enterokinase digestion-site; made in house; host or cells: Escherichia coli
T3 sequence (P39900 100-263): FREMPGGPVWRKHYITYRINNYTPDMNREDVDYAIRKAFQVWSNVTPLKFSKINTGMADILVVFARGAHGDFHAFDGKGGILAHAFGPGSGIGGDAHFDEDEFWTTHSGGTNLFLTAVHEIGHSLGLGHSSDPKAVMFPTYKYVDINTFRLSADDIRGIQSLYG
Protocol: (§7) In regard to MMP-12, catalytic domain(^100Phe˜^263Gly) was amplified with RT-PCR from Human Placenta Total RNA. This was cloned in Escherichia. coli expression vector pTrc99AHE inserted with His-tag sequence and enterokinase digestion-site, induced and expressed by IPTG (Isopropyl-β-D-thiogalactopyranoside) and expressed in a insoluble fraction. Isolation of MMP-12 from an insoluble fraction was carried out by dissolving in modifier (6M urea) by a usual method and purification with metal chelate chromatography (Ni Chelateing Sepharose). And then removing modifier (6M urea) with dialysis and refolding of the enzyme spontaneously gave activated MMP-12.
as §1, §2, §3, §4, §5, §6

[4] = target: T4, MMP-2 (Homo sapiens, UniProt P08253); assay: Assay for inhibitory activities on MMPs (fluorogenic peptide substrate), MMP-2; settings: purchased MMP-2; substrate MOCAc-Pro-Leu-Gly-Leu-A2Pr(DNP)-Ala-Arg-NH2
T4 construct: purchased Calbiochem-Novabiochem International, Inc
T4 sequence (P08253 110-660): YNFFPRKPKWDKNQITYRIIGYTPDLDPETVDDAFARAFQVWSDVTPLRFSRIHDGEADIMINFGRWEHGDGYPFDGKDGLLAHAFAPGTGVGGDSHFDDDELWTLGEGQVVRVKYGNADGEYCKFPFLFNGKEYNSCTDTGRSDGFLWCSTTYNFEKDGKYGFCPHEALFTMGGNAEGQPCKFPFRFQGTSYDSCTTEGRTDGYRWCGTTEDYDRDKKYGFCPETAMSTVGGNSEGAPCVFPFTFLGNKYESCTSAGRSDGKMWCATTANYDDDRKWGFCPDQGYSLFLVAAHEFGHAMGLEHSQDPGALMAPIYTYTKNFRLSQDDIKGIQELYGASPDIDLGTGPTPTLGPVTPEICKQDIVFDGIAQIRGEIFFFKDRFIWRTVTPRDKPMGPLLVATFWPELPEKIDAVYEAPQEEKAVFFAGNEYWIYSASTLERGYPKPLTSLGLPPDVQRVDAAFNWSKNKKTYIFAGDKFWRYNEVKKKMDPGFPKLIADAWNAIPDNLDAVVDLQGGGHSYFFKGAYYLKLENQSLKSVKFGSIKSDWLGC
Protocol: MMP-2 was purchased from Calbiochem-Novabiochem International, Inc.
as §1, §2, §3, §4, §5, §6

[5] = target: T5, MMP-13 (Homo sapiens, UniProt P45452); assay: Assay for inhibitory activities on MMPs (fluorogenic peptide substrate), MMP-13; settings: catalytic domain 104Tyr-267Gly; substrate MOCAc-Pro-Leu-Gly-Leu-A2Pr(DNP)-Ala-Arg-NH2
T5 construct: catalytic domain (^104Tyr˜^267Gly) was amplified with RT-PCR; His-tag; enterokinase digestion-site; made in house; host or cells: Escherichia coli
Protocol: as §7, with “MMP-13, mRNA was prepared from carcinoma cell SW1353 derived from human cartilage stimulate by IL-1, TNF and” for “MMP-12,”, “domain (^104Tyr˜^267Gly)” for “domain(^100Phe˜^263Gly)”, “RT-PCR.” for “RT-PCR from Human Placenta Total RNA.”, “MMP-13” for “MMP-12”, “dialyze” for “dialysis”, “MMP-13.” for “MMP-12.”
as §1, §2, §3, §4, §5, §6

SMILES	IC50 [1] [nM]	IC50 [2] [nM]	IC50 [3] [nM]	IC50 [4] [nM]	IC50 [5] [nM]
CC(C)[C@H](NS(=O)(=O)c1ccc(-c2ncc(-c3ccc(Cl)cc3)s2)cc1)C(=O)O [Compound B-5]	25.7	14.8	1.33	5.24	6.18
COc1ccc(-c2cnc(-c3ccc(S(=O)(=O)N[C@@H](C(=O)O)C(C)C)cc3)s2)cc1 [Compound B-6]	6.47	10	0.37	0.347	1.16
CC(C)[C@@H](NS(=O)(=O)c1ccc(-c2ncc(-c3ccc(F)cc3)s2)cc1)C(=O)O [Compound B-8]	10.5	11.1	1.96	1.38	9.53
CC(C)[C@H](NS(=O)(=O)c1ccc(-c2ncc(-c3ccc(F)cc3)s2)cc1)C(=O)O [Compound B-9]	12.5	55	1.33	8.05	13.1
O=C(O)[C@H](Cc1ccccc1)NS(=O)(=O)c1ccc(-c2ncc(-c3ccccc3)s2)cc1 [Compound B-12]	25.9	66.9	3.69	1.44	9.3
O=C(O)[C@@H](Cc1ccccc1)NS(=O)(=O)c1ccc(-c2ncc(-c3ccc(Cl)cc3)s2)cc1 [Compound B-13]	92.3	11.8	1.41	1.2	5.08
O=C(O)[C@@H](Cc1ccccc1)NS(=O)(=O)c1ccc(-c2ncc(-c3ccc(F)cc3)s2)cc1 [Compound B-17]	22.4	22.6	3.21	2.09	12.1
C[C@H](NS(=O)(=O)c1ccc(-c2ncc(-c3ccc(Cl)cc3)s2)cc1)C(=O)O [Compound B-26]	42.5	54.4	1.24	8.3	14.1
C[C@@H](NS(=O)(=O)c1ccc(-c2ncc(-c3ccc(F)cc3)s2)cc1)C(=O)O [Compound B-27]	25.2	13.3	3.29	0.901	15.3
CC(C)C[C@@H](NS(=O)(=O)c1ccc(-c2ncc(-c3ccc(Cl)cc3)s2)cc1)C(=O)O [Compound B-31]	144	35.7	4.55	3.57	32.6

The remaining compounds from weak to strong by IC50 [1], led by results:

IC50 [1] [nM]	IC50 [2] [nM]	IC50 [3] [nM]	IC50 [4] [nM]	IC50 [5] [nM]	SMILES
72.8	19.5	2.49	2.56	11	O=C(O)[C@H](Cc1ccccc1)NS(=O)(=O)c1ccc(-c2ncc(-c3ccc(Cl)cc3)s2)cc1 [Compound B-14]
58.2	19.9	5.86	1.47	22	C[C@@H](NS(=O)(=O)c1ccc(-c2ncc(-c3ccccc3)s2)cc1)C(=O)O [Compound B-21]
56.9	5.71	3.06	1.27	5.51	CC(C)[C@@H](NS(=O)(=O)c1ccc(-c2ncc(-c3ccc(Cl)cc3)s2)cc1)C(=O)O [Compound B-4]
51.7	5.69	0.949	0.484	4.82	C[C@@H](NS(=O)(=O)c1ccc(-c2ncc(-c3ccc(Cl)cc3)s2)cc1)C(=O)O [Compound B-25]
45.2	5.82	0.47	0.313	2.6	C[C@@H](NS(=O)(=O)c1ccc(-c2ncc(-c3ccc(Br)cc3)s2)cc1)C(=O)O [Compound B-29]
31.7	3.96	0.643	0.373	3.38	CC(C)[C@@H](NS(=O)(=O)c1ccc(-c2ncc(-c3ccc(Br)cc3)s2)cc1)C(=O)O [Compound B-10]
26.1	16.2	2.4	1.08	6.34	O=C(O)[C@@H](Cc1ccccc1)NS(=O)(=O)c1ccc(-c2ncc(-c3ccccc3)s2)cc1 [Compound B-11]
18.5	109	1.5	6.3	8.4	COc1ccc(-c2cnc(-c3ccc(S(=O)(=O)N[C@@H](C)C(=O)O)cc3)s2)cc1 [Compound B-24]
15.4	16.2	1.37	0.479	2.04	COc1ccc(-c2cnc(-c3ccc(S(=O)(=O)N[C@H](C)C(=O)O)cc3)s2)cc1 [Compound B-23]
